Measured values as given in ChEMBL document CHEMBL4619706, “Synthesis, biological evaluation and molecular modeling study of [1,2,4]-Triazolo[4,3-c]quinazolines: New class of EGFR-TK inhibitors” (Bioorg Med Chem, 2020).

Experiments:
HeLa = test: Anticancer activity against human HeLa cells assessed as inhibition of cell growth incubated for 24 hrs by MTT assay; format: functional, cell-based
HCT-116 = test: Anticancer activity against human HCT116 cells assessed as inhibition of cell growth incubated for 24 hrs by MTT assay; format: functional, cell-based; conditions: HCT-116, 24 h
MCF7 [1] = test: Anticancer activity against human MCF7 cells assessed as inhibition of cell growth incubated for 24 hrs by MTT assay; format: functional, cell-based; conditions: MCF7, 24 h
HepG2 = test: Anticancer activity against human HepG2 cells assessed as inhibition of cell growth incubated for 24 hrs by MTT assay; format: functional, cell-based; conditions: HepG2, 24 h
PC-3 = test: Anticancer activity against human PC3 cells assessed as inhibition of cell growth incubated for 24 hrs by MTT assay; format: functional, cell-based; conditions: PC-3, 24 h
MCF7 [2] = test: Induction of apoptosis in human MCF7 cells assessed as cumulative apoptosis after 24 hrs by Annexin V-FITC/propidium iodide double staining based FACSCalibur flow cytometry analysis (reference value: 2.11 %); format: functional
MCF7 [3] = test: Induction of apoptosis in human MCF7 cells assessed as late apoptotic cells after 24 hrs by Annexin V-FITC/propidium iodide double staining based FACSCalibur flow cytometry analysis (reference value: 0.43 %); format: functional
MCF7 [4] = test: Cell cycle arrest in human MCF7 cells assessed as accumulation of cells at G2/M phase at IC50 after 24 hrs by propidium iodide/RNase staining based FACSCalibur flow cytometry analysis (reference value: 16.23 %); format: functional
MCF7 [5] = test: Induction of apoptosis in human MCF7 cells assessed after 24 hrs by Annexin V-FITC/propidium iodide double staining based FACSCalibur flow cytometry analysis; format: functional, cell-based
MCF7 [6] = test: Induction of apoptosis in human MCF7 cells assessed as viable cells after 24 hrs by Annexin V-FITC/propidium iodide double staining based FACSCalibur flow cytometry analysis (reference value: 97.89 %); format: functional
MCF7 [7] = test: Induction of apoptosis in human MCF7 cells assessed as early apoptotic cells after 24 hrs by Annexin V-FITC/propidium iodide double staining based FACSCalibur flow cytometry analysis (reference value: 1.22 %); format: functional
[8] = target: Epidermal growth factor receptor (Homo sapiens, UniProt P00533); test: Inhibition of human EGFR-TK using PTK substrate after 40 mins in presence of ATP by Kinase-Glo luminescent assay
MCF7 [9] = test: Induction of apoptosis in human MCF7 cells assessed as necrotic cells after 24 hrs by Annexin V-FITC/propidium iodide double staining based FACSCalibur flow cytometry analysis (reference value: 0.46 %); format: functional
MCF7 [10] = test: Cell cycle arrest in human MCF7 cells assessed as accumulation of cells at pre-G1 phase at IC50 after 24 hrs by propidium iodide/RNase staining based FACSCalibur flow cytometry analysis (reference value: 2.11 %); format: functional
MCF7 [11] = test: Cell cycle arrest in human MCF7 cells assessed as accumulation of cells at G0/G1 phase at IC50 after 24 hrs by propidium iodide/RNase staining based FACSCalibur flow cytometry analysis (reference value: 57.28 %); format: functional
MCF7 [12] = test: Cell cycle arrest in human MCF7 cells assessed as accumulation of cells at S phase at IC50 after 24 hrs by propidium iodide/RNase staining based FACSCalibur flow cytometry analysis (reference value: 26.49 %); format: functional

Sequence of Epidermal growth factor receptor (P00533 whole entry): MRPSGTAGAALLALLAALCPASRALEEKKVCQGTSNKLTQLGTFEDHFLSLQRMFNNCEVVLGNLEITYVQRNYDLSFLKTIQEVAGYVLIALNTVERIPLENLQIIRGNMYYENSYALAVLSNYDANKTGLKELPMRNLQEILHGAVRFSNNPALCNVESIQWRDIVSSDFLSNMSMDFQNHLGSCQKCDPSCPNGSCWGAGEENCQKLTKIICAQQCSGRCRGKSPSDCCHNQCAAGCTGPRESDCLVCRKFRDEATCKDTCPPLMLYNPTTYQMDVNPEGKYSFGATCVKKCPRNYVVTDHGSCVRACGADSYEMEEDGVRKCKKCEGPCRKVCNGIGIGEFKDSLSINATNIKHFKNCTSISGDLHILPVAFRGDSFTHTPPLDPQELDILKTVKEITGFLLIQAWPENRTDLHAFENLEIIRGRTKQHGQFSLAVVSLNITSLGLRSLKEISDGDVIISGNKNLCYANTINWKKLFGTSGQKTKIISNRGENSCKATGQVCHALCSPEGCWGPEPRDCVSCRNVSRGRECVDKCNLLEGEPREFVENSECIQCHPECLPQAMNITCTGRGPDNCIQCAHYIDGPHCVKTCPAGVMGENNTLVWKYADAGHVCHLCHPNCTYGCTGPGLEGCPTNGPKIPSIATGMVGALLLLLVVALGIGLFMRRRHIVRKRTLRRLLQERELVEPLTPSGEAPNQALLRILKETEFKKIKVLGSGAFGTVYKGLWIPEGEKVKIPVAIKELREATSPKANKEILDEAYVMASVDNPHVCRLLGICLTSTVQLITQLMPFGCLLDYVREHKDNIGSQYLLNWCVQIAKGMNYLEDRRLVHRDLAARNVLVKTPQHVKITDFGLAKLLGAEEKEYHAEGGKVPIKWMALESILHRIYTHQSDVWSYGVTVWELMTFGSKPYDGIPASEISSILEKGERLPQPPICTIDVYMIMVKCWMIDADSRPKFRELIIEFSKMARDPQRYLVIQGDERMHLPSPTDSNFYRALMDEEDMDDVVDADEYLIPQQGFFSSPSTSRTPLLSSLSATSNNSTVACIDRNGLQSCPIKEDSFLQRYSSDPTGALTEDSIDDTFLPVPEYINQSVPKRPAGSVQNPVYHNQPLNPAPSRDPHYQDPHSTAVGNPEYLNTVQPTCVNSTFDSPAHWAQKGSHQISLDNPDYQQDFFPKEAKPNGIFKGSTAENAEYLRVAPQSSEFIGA

Row | Structure (SMILES) | IC50 (HeLa) | IC50 (HCT-116) | IC50 (MCF7 [1]) | IC50 (HepG2) | IC50 (PC-3) | IC50 [8] | Activity (MCF7 [2]) | Activity (MCF7 [3]) | Activity (MCF7 [4]) | Activity (MCF7 [5]) | Activity (MCF7 [6]) | Activity (MCF7 [7]) | Activity (MCF7 [9]) | Activity (MCF7 [10]) | Activity (MCF7 [11]) | Activity (MCF7 [12])
1 | O=[N+]([O-])c1cccc(/C=N/c2nnc3c4ccccc4nc(Nc4ccccc4)n23)c1 | 31.4 µM | 34.6 µM | 40.4 µM | 44.1 µM | 35.7 µM | – | – | – | – | – | – | – | – | – | – | –
2 | O=C(Nc1nnc2c3ccccc3nc(Sc3ccc(Br)cc3)n12)c1ccccc1 | 46.4 µM | 44.2 µM | 30.2 µM | 32.4 µM | 29.9 µM | – | – | – | – | – | – | – | – | – | – | –
3 | O=C(CN1CCOCC1)Nc1nnc2c3ccccc3nc(Sc3ccc(Br)cc3)n12 | 47.1 µM | – | 55.6 µM | 50.3 µM | 61.5 µM | – | – | – | – | – | – | – | – | – | – | –
4 | Cc1cccc(Nc2nc3ccccc3c3nnc(/N=C/c4ccc(F)cc4)n23)c1 | 26.5 µM | 20.4 µM | 18.2 µM | 24.2 µM | 30.5 µM | – | – | – | – | – | – | – | – | – | – | –
5 | c1ccc2c(c1)nc(Oc1ccc(NCCCN3CCOCC3)cc1)n1cnnc21 | 44.3 µM | 39.6 µM | 38.5 µM | 46.2 µM | 41.6 µM | – | – | – | – | – | – | – | – | – | – | –
6 | Nc1nnc2c3ccccc3nc(Sc3ccc(Br)cc3)n12 | 45.2 µM | 63.5 µM | 57.3 µM | 44.9 µM | 59.5 µM | – | – | – | – | – | – | – | – | – | – | –
7 | c1ccc(N2CCN(CCCNc3ccc(Oc4nc5ccccc5c5nncn45)cc3)CC2)cc1 | 23.4 µM | 32.5 µM | 30.5 µM | 24.2 µM | 51.5 µM | – | – | – | – | – | – | – | – | – | – | –
8 | CN1CCN(CC(=O)Nc2nnc3c4ccccc4nc(Sc4ccc(Br)cc4)n23)CC1 | 35.1 µM | 44.9 µM | 24.4 µM | 27.2 µM | 41.7 µM | – | – | – | – | – | – | – | – | – | – | –
9 | O=C(CCl)Nc1nnc2c3ccccc3nc(Sc3ccc(Br)cc3)n12 | 30.4 µM | 37.5 µM | 34.4 µM | 29.9 µM | 37.1 µM | – | – | – | – | – | – | – | – | – | – | –
10 | Fc1ccc(/C=N/c2nnc3c4ccccc4nc(Cl)n23)cc1 | 29.2 µM | 18.5 µM | 25.9 µM | 31.2 µM | 38.5 µM | – | – | – | – | – | – | – | – | – | – | –
11 | Nc1cc([N+](=O)[O-])ccc1Nc1nc2ccccc2c2nnc(/N=C/C=C/c3ccccc3)n12 | 36.1 µM | 11.6 µM | 32.7 µM | 13.7 µM | 25.2 µM | – | – | – | – | – | – | – | – | – | – | –
12 | Nc1ccc(Oc2nc3ccccc3c3nncn23)cc1 | 25.7 µM | 27.6 µM | 20.5 µM | 26.2 µM | 26.7 µM | – | – | – | – | – | – | – | – | – | – | –
13 | COc1ccc(/C=N/c2nnc3c4ccccc4nc(Cl)n23)cc1O | 29.4 µM | 31 µM | 37.2 µM | 49.2 µM | 33.5 µM | – | – | – | – | – | – | – | – | – | – | –
14 | O=[N+]([O-])c1cccc(/C=N/c2nnc3c4ccccc4nc(Cl)n23)c1 | 73.4 µM | 49.2 µM | 48.2 µM | 55.5 µM | 60.2 µM | – | – | – | – | – | – | – | – | – | – | –
15 | Clc1nc2ccccc2c2nnc(/N=C/c3ccccc3)n12 | 34.7 µM | 22.5 µM | 17.1 µM | 19.3 µM | 27.5 µM | – | – | – | – | – | – | – | – | – | – | –
16 | COc1cccc2c1C(=O)c1c(O)c3c(c(O)c1C2=O)C[C@@](O)(C(=O)CO)C[C@@H]3O[C@H]1C[C@H](N)[C@H](O)[C@H](C)O1 [DOXORUBICIN] | – | – | – | – | – | – | 32.16% | 19.81% | 48.57% | – | 67.84% | 9.28% | 3.07% | 32.16% | 32.16% | 22.91%

Further lines, with some results ahead:

Row | IC50 (HeLa) | IC50 (HCT-116) | IC50 (MCF7 [1]) | IC50 (HepG2) | IC50 (PC-3) | IC50 [8] | Structure (SMILES) | Activity (MCF7 [2]) | Activity (MCF7 [3]) | Activity (MCF7 [4]) | Activity (MCF7 [5]) | Activity (MCF7 [6]) | Activity (MCF7 [7]) | Activity (MCF7 [9]) | Activity (MCF7 [10]) | Activity (MCF7 [11]) | Activity (MCF7 [12])
17 | 13.4 µM | 11.5 µM | 8.9 µM | 10.3 µM | 10.5 µM | 0.69 µM | Nc1nc(Nc2nnc3c4ccccc4nc(Sc4ccc(Br)cc4)n23)cs1 | 27.15% | 17.3% | 41.43% | Dose-dependent effect | 72.85% | 7.58% | 2.27% | 27.15% | 35.76% | 22.81%
18 | 12.5 µM | 17.2 µM | 15.3 µM | 16.5 µM | 14.3 µM | – | CN1CCN(CCCNc2ccc(Oc3nc4ccccc4c4nncn34)cc2)CC1 | – | – | – | – | – | – | – | – | – | –
19 | 15.5 µM | 24.4 µM | 19.7 µM | 20.8 µM | 43.9 µM | – | C(=N\c1nnc2c3ccccc3nc(Nc3ccccc3)n12)/c1ccco1 | – | – | – | – | – | – | – | – | – | –
20 | 11.8 µM | 12 µM | 9.48 µM | 8.43 µM | 10.7 µM | 4.1 µM | O=C1CSCC(=O)N1c1nnc2c3ccccc3nc(Sc3ccc(Br)cc3)n12 | – | – | – | – | – | – | – | – | – | –
21 | 10.1 µM | 8.27 µM | 12.3 µM | 9.8 µM | 17.7 µM | 4.28 µM | COc1ccc(/C=N/c2nnc3c4ccccc4nc(Nc4ccc(C)cc4N)n23)cc1O | – | – | – | – | – | – | – | – | – | –
22 | 9.16 µM | 12.9 µM | 8.34 µM | 11.6 µM | 16.4 µM | 7.56 µM | Clc1nc2ccccc2c2nnc(/N=C/C=C/c3ccccc3)n12 | – | – | – | – | – | – | – | – | – | –
23 | 14.3 µM | 13.8 µM | 12.9 µM | 11.5 µM | 10.6 µM | 9.51 µM | CCN1CCN(CCCNc2ccc(Oc3nc4ccccc4c4nncn34)cc2)CC1 | – | – | – | – | – | – | – | – | – | –
24 | 22.3 µM | 24.8 µM | 20.3 µM | 19.2 µM | 12.6 µM | – | C(=N\c1nnc2c3ccccc3nc(Nc3ccccc3)n12)/c1ccccc1 | – | – | – | – | – | – | – | – | – | –
25 | 16.2 µM | 20.4 µM | 19.8 µM | 18.2 µM | 16.8 µM | – | O=C(Nc1nnc2c3ccccc3nc(Sc3ccc(Br)cc3)n12)c1ccc(Cl)c([N+](=O)[O-])c1 | – | – | – | – | – | – | – | – | – | –
26 | 15.4 µM | 15.2 µM | 12.5 µM | 11.6 µM | 10.7 µM | 3.91 µM | CCN1CCN(CC(=O)Nc2nnc3c4ccccc4nc(Sc4ccc(Br)cc4)n23)CC1 | – | – | – | – | – | – | – | – | – | –
27 | 9.47 µM | 13.5 µM | 8.58 µM | 15.3 µM | 10.6 µM | 1.8 µM | N#CC1=C(N)N(c2nnc3c4ccccc4nc(Sc4ccc(Br)cc4)n23)C(=O)C1 | 19.41% | 10.26% | 33.21% | Dose-dependent effect | 80.59% | 7.26% | 1.89% | 19.41% | 41.33% | 25.46%
28 | 18.9 µM | 14.8 µM | 9.73 µM | 15 µM | 21.7 µM | 0.74 µM | Clc1nc2ccccc2c2nnc(/N=C/c3ccco3)n12 | 8.56% | 4.22% | 23.09% | Dose-dependent effect | 91.44% | 2.92% | 1.42% | 8.56% | 46.72% | 30.19%
